According to US20190255056A1, “A HCK INHIBITOR AND A BCL-2 INHIBITOR FOR TREATING ACUTE MYELOID LEUKEMIA” (RIKEN, priority 2016, published 2019):

How the values were obtained:
[1] = test system: residual viable human CD45+AML cells (leukemia-initiating capacity); test: Secondary (serial) transplantation of residual human AML cells after in vivo treatment; set-up: species or system NSG mice; details: 2.5% of residual viable human CD45+ cells transplanted per secondary recipient; single-agent groups
Description: (§1) In vivo treatment experiments were performed with AML-engrafted NSG recipients using RK-20449 (Ref. STM 2013) and ABT-199 (Souers A J et al., Nature Medicine 2013, Pan R et al., Cancer Discovery 2014). The recipients were administered RK-20449 intraperitoneally 30 mg/kg twice a day, ABT-199 orally 70 mg/kg once a day or both RK-20449 and ABT-199 at these dosing schedules. The mice were sacrificed when they became moribund or after 4˜6 weeks of treatment, and human AML chimerisms in BM, spleen and PB were determined using flow cytometry. In secondary transplantation, each mouse received 7-AAD(-) viable human CD45+cells from 2.5% of total BM that remained in AML-engrafted recipients at the time of sacrifice, to simulate relapse occurring from residual viable AML cells.
Leukemia-initiating capacity remaining after treatment was compared by isolating residual viable human CD45+AML cells from each treated mouse and transplanting a pre-determined fraction into secondary NSG recipients.

[2] = test system: human FLT3−ITD+AML cells; test: In vivo treatment of AML-engrafted NSG recipients (PDX model); set-up: species or system NSG mice
Description: NSG newborns received 1.5Gy total body irradiation followed by intravenous injection of purified human cells. Donor cells were purified according to their cell surface phenotype using monoclonal antibodies against human CD34, CD38, CD90, CD45RA, CD3, CD19 and CD33. Engraftment levels of human cells in the NSG recipients were assessed by retro-orbital phlebotomy and flow cytometry.
as §1
These studies examined whether inhibition of a mutated kinase alone eliminates AML in vivo using a NSG PDX model. Patient-derived cells with a FLT3−ITD mutation engraft in vivo and initiate AML, but the individual FLT3−ITD+cells harbor multiple other mutations in various combinations. These mutations may contribute to therapy responsiveness in cooperation with FLT3−ITD, and a PDX model that reflects mutational complexity of human AML cells is necessary to examine the contribution of multiple co-existing mutations. Therefore, the frequency of AML-associated somatic mutations was evaluated in the disclosed PDX model using newborn NSG xenotransplantation, and the same sets of mutations were present in patient-derived leukemia-initiating population and engrafted AML cells in recipients (see, FIG. 4). […] The extent that targeting FLT3 pathway alone can result in reduction of human AML cells harboring multiple mutations in vivo was examined as follows. RK-20449 is a pyrrolo-pyrimidine-derivative multi-kinase inhibitor of Src family kinase HCK and FLT3 that effectively target human AML cells. Therefore, RK-20449 was administered to 58 NSG mice engrafted with AML from 19 FLT3−ITD+AML patients and the results are shown in FIG. 8.

Compound | AML initiation in secondary recipients from treated BM [1] | response to ABT-199 alone ([2]; ABT-199 orally 70 mg/kg once a day, majority of cases) | residual BM human CD45+chimerism ([2]; RK-20449 alone 30 mg/kg i.p. twice a day, five patients with complete responses, every recipient treated) | response in the spleen ([2]; RK-20449 alone, 11 additional cases) | response of FLT3−ITD+human AML cells to single agent in vivo ([2]; all 19 cases tested) | remaining AML cells in BM, spleen and PB ([2]; flow cytometry and immunohistochemistry, complete-responder patients, all recipients treated) | BCL-2 dependence for leukemia cell survival ([2]; in vivo kinase inhibition) | cases with residual AML cells in the BM of at least one treated mouse ([2]; single agent RK-20449)
CC1(C)CCC(CN2CCN(c3ccc(C(=O)NS(=O)(=O)c4ccc(NCC5CCOCC5)c([N+](=O)[O-])c4)c(Oc4cnc5[nH]ccc5c4)c3)CC2)=C(c2ccc(Cl)cc2)C1 [ABT-199, reference compound] | every secondary recipient | limited responses | – | – | – | – | – | –
CN1CCN([C@H]2CC[C@H](n3cc(-c4ccc(Oc5ccccc5)cc4)c4c(N)ncnc43)CC2)CC1 [RK-20449, 7-((1R,4R)-4-(4-methylpiperazin-l-yl)cyclohexyl)-5-(4-phenoxyphenyl)-7H-pyrrolo[2,3-d]pyrimidin-4-amine] | every secondary recipient | – | < 5% | complete responses in the spleen in a majority of recipients tested | significant responses | less than 0.01% | enhanced | 14 of 19
